Test results reported in ChEMBL document CHEMBL2074284, “Transport of ochratoxin A by renal multispecific organic anion transporter 1” (J Pharmacol Exp Ther, 1999).

Key:
[1] = target: T1, Solute carrier family 22 member 6 (Rattus norvegicus, UniProt O35956); experiment: TP_TRANSPORTER: inhibition of Ochratoxin A uptake (OTA: 1 uM, Aspartame: 1000 uM) in Xenopus laevis oocytes; assay type: functional, cell-based; details: oocyte
T1 sequence (O35956 whole entry): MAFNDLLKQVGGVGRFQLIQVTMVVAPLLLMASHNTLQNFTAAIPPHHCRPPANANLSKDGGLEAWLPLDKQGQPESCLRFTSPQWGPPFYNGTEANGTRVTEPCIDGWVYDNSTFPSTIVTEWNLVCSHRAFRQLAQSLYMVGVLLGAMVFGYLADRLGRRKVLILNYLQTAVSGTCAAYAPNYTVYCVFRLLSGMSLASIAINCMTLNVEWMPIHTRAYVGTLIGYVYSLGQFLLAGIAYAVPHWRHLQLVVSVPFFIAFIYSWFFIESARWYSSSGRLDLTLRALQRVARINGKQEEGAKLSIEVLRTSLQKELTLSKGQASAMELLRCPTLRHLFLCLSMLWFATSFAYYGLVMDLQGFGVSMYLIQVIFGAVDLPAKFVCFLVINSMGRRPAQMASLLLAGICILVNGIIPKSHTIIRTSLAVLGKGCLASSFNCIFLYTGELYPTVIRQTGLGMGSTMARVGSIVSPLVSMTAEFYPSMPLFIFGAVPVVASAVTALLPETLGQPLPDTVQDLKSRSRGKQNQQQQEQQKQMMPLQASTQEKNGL

[2] = target: T1, Solute carrier family 22 member 6; experiment: TP_TRANSPORTER: inhibition of Ochratoxin A uptake (OTA: 1 uM, Citrinin: 200 uM) in Xenopus laevis oocytes; assay type: functional, cell-based; details: oocyte

How did the Activity [1] turn out when `COC(=O)[C@H](Cc1ccccc1)NC(=O)[C@@H](N)CC(=O)O` was run?
Its Activity is “is not an inhibitor [-]”.

How did the Activity [2] turn out when `CC1=C2C(=CO[C@H](C)[C@H]2C)C(O)=C(C(=O)O)C1=O` [CITRININ] was run?
The Activity was “inhibitor [(at a rough estimate) 20 % of control]”.
